Columns and labels:
Test in all cases: MIC by broth dilution method (Table 4)
Assay type in all cases: cell-based
Design in all cases: unit not given here
S. aureus RN450 = S. aureus RN450 Tc^s; 18 hours
Description: (§1) The minimum inhibitory concentration, the lowest concentration of drug that inhibits bacterial growth at 18 hours at their appropriate temperature, is determined by the broth dilution method using L-broth or Muller-Hinton broth. The Muller-Hinton broth was cation-adjusted accordingly and all bacteriological methods were performed as was described by Waitz, J. A., National Commision for Clinical Laboratory Standards Document M7-A2, vol.10, no. 8, pp.13-20, 2nd edition, Villanova, Pa. (1990). The organisms tested represent gram-positive and gram-negative bacterial species that are susceptible to tetracyclines or are resistant to tetracyclines due to the ability to efflux tetracyclines or which confer resistance by ribosomal protection mechanisms. The clinical strains used are either susceptible to tetracyclines or are resistant to them by either drug efflux or ribosomal protection.

S. aureus ATCC12715 = conditions: S. aureus Tc^r ATCC12715; 18 hours
Description: as §1

E. faecalis ATCC9790 = conditions: E. faecalis Tc^r ATCC9790; 18 hours
Description: as §1

S. aureus MRSA5 = S. aureus MRSA5 Tc^r; 18 hours
Description: as §1

E. coli D31m4(pHCM1) = E. coli D31m4(pHCM1) Tcr; 18 hours
Description: as §1

E. coli D31m4 = conditions: E. coli D31m4* Tc^r, lipopolysaccharide-deficient mutant; 18 hours
Description: as §1

S. aureus RN4250 = S. aureus RN4250 Tc^r; 18 hours
Description: as §1

E. faecalis pAM211 = E. faecalis pAM211 Tc^r; 18 hours
Description: as §1

E. faecalis pMV158 = E. faecalis pMV158 Tc^r; 18 hours
Description: as §1

Structure (SMILES) | Antibacterial activity (minimum inhibitory concentration) (S. aureus RN450) | Antibacterial activity (minimum inhibitory concentration) (S. aureus ATCC12715) | Antibacterial activity (minimum inhibitory concentration) (E. faecalis ATCC9790) | Antibacterial activity (minimum inhibitory concentration) (S. aureus MRSA5) | Antibacterial activity (minimum inhibitory concentration) (E. coli D31m4(pHCM1)) | Antibacterial activity (minimum inhibitory concentration) (E. coli D31m4) | Antibacterial activity (minimum inhibitory concentration) (S. aureus RN4250) | Antibacterial activity (minimum inhibitory concentration) (E. faecalis pAM211) | Antibacterial activity (minimum inhibitory concentration) (E. faecalis pMV158)
CC1c2ccc(C3(C)CCC3)c(O)c2C(=O)C2=C(O)[C@]3(O)C(=O)C(C(N)=O)=C(O)[C@@H](N(C)C)C3C(O)C21 (stereo partly drawn) [G, [4S-(4alpha,12aalpha)]-9-[1′-(1′-methyl)cyclobutyl]-4-(dimethylamino)-1,4,4a,5,5a,6,11,12a-octahydro-3,5,10,12,12a-pentahydroxy-6-methyl-1,11-dioxo-2-naphthacenecarboxamide] | 1.56 | 3.12 | 0.78 | 0.08 | 6.25 | 6.25 | 3.12 | – | –
CC1c2ccc(C(C)(C)CCC[N+](=O)[O-])c(O)c2C(=O)C2=C(O)[C@]3(O)C(=O)C(C(N)=O)=C(O)[C@@H](N(C)C)C3C(O)C21 (stereo partly drawn) [M, [4S-(4alpha,12a-alpha)]-9-[4′-(1′-nitro-4′-methyl)pentyl]-4-(dimethylamino)-1,4,4a,5,5a,6,11,12a-octahydro-3,5,10,12,12a-pentahydroxy-6-methyl-1,11-dioxo-2-naphthacenecarboxamide] | 3.12 | 1.56 | 0.78 | 0.78 | – | 12.5 | 0.78 | 0.78 | 0.78
CC1c2ccc(C(C)(C)CCCC#N)c(O)c2C(=O)C2=C(O)C3(O)C(=O)C(C(N)=O)=C(O)C(N(C)C)C3C(O)C21 (stereo not drawn) [L, [4S-(4alpha,12aalpha)]-9-[4′-(1′-cyano-4′-methyl)pentyl]-4-(dimethylamino)-1,4,4a,5,5a,6,11,12a-octahydro-3,5,10,12,12a-pentahydroxy-6-methyl-1,11-dioxo-2-naphthacenecarboxamide] | 1.56 | 6.25 | 3.12 | 6.25 | – | – | 3.12 | – | –
CC1c2ccc(C(C)(C)C)c(O)c2C(=O)C2=C(O)[C@]3(O)C(=O)C(C(N)=O)=C(O)[C@@H](N(C)C)C3C(OC(=O)C3CCC3)C21 (stereo partly drawn) [D, [4S-(4alpha,12aalpha)]-9-(tert-butyl)-4-(dimethylamino)-5-cyclobutylcarbonyloxy-1,4,4a,5,5a,6,11,12a-octahydro-3,10,12,12a-tetrahydroxy-6-methyl-1,11-dioxo-2-naphthacenecarboxamide] | 0.78 | 3.12 | 0.78 | 1.56 | 50 | 50 | 3.12 | – | 50
CCCC(C)(C)c1ccc2c(c1O)C(=O)C1=C(O)[C@]3(O)C(=O)C(C(N)=O)=C(O)[C@@H](N(C)C)C3C(O)C1C2C (stereo partly drawn) [H, [4S-(4alpha,12aalpha)]-9-[2′-(2′-methyl)pentyl]-4-(dimethylamino)-1,4,4a,5,5a,6,11,12a-octahydro-3,5,10,12,12a-pentahydroxy-6-methyl-1,11-dioxo-2-naphthacenecarboxamide] | 0.08 | 0.78 | 0.78 | 0.39 | 1.56 | 50 | 0.39 | 0.78 | 0.78
CC1c2ccc(C(C)(C)CCCN(C)C)c(O)c2C(=O)C2=C(O)[C@]3(O)C(=O)C(C(N)=O)=C(O)[C@@H](N(C)C)C3C(O)C21 (stereo partly drawn) [J, [4S-(4alpha,12aalpha)]-9-[4′-(1′-dimethylamino-4′-methyl)pentyl]-4-(dimethylamino)-1,4,4a,5,5a,6,11,12a-octahydro-3,5,10,12,12a-pentahydroxy-6-methyl-1,11-dioxo-2-naphthacenecarboxamide] | 50 | 50 | 50 | 50 | 50 | 50 | 50 | 50 | 50
CC1c2ccc(C(C)(C)CCCN3CCCC3)c(O)c2C(=O)C2=C(O)[C@]3(O)C(=O)C(C(N)=O)=C(O)[C@@H](N(C)C)C3C(O)C21 (stereo partly drawn) [K, [4S-(4alpha,12a-alpha)]-9-[4′-(1′-pyrrolidinyl-4′-methyl)pentyl]-4-(dimethylamino)-1,4,4a,5,5a,6,11,12a-octahydro-3,5,10,12,12a-pentahydroxy-6-methyl-1,11-dioxo-2-naphthacenecarboxamide] | 25 | 50 | 25 | 6.25 | 50 | 50 | 50 | 25 | 25
CC1c2ccc(C3(C)CCCCC3)c(O)c2C(=O)C2=C(O)[C@]3(O)C(=O)C(C(N)=O)=C(O)[C@@H](N(C)C)C3C(O)C21 (stereo partly drawn) [E, [4S-(4alpha,12aalpha)]-9-[1′-(1′-methyl)cyclohexyl]-4-(dimethylamino)-1,4,4a,5,5a,6,11,12a-octahydro-3,5,10,12,12a-pentahydroxy-6-methyl-1,11-dioxo-2-naphthacenecarboxamide] | 1.56 | 6.25 | 0.39 | 6.25 | 25 | 25 | 6.25 | – | –
CC(=O)OC(CCC(C)C)c1ccc2c(c1O)C(=O)C1=C(O)C3(O)C(=O)C(C(N)=O)=C(O)C(N(C)C)C3C(O)C1C2C (stereo not drawn) [Compound N, [4S-(4alpha,12aalpha)]-9-[4′-(1′-acetoxy-4′-methyl)pentyl]-4-(dimethylamino)-1,4,4a,5,5a,6,11,12a-octahydro-3,5,10,12,12a-pentahydroxy-6-methyl-1,11-dioxo-2-naphthacenecarboxamide] | 1.56 | 1.56 | 1.56 | 1.56 | 3.12 | 3.12 | 1.56 | 1.56 | 0.78
CC1c2ccc(C(C)(C)C)c(O)c2C(=O)C2=C(O)[C@]3(O)C(=O)C(C(N)=O)=C(O)[C@@H](N(C)C)C3C(O)C21 (stereo partly drawn) [A, [4S-(4alpha,12aalpha)]-9-(tert-butyl)-4-(dimethylamino)-1,4,4a,5,5a,6,11,12a-octahydro-3,5,10,12,12a-pentahydroxy-6-methyl-1,11-dioxo-2-naphthacenecarboxamide] | 0.78 | 3.12 | 1.56 | 3.12 | – | – | 1.56 | – | –
